Assays:
[1] = target: Voltage-gated inwardly rectifying potassium channel KCNH2 (Homo sapiens, UniProt Q12809); test: Displacement of Tracer Red from human ERG by fluorescence polarization assay
Chitotriosidase-1 [2] = target: Chitotriosidase-1 (Mus musculus, UniProt Q9D7Q1); test: Inhibition of full-length C-terminal his-tagged mouse CHIT1 expressed in CHO-K1 cells assessed as reduction in chitinolytic activity using 4-methylumbelliferyl-beta-D-N,N',N\"-triacetylchitotrioside as substrate after 60 mins by fluorometric assay; format: cell-based
Sequence of Chitotriosidase-1 (Mus musculus, UniProt Q9D7Q1) (Q9D7Q1 whole entry): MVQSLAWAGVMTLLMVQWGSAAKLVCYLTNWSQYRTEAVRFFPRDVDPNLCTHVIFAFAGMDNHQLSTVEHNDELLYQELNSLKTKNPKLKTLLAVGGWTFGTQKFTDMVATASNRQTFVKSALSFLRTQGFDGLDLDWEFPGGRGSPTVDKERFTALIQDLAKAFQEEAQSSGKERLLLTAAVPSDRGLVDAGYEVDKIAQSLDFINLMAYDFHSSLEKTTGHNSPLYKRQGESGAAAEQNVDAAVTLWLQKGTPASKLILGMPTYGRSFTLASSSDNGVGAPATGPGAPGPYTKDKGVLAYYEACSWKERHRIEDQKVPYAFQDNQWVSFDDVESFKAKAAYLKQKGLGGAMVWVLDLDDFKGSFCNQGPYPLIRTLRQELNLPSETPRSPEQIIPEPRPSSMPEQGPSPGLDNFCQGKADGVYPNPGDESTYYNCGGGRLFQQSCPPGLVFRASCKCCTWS

[3] = target: Acidic mammalian chitinase (Mus musculus, UniProt Q91XA9); test: Inhibition of full-length C-terminal his-tagged mouse acidic mammalian chitinase expressed in CHO-K1 cells assessed as reduction in chitinolytic activity using 4-methylumbelliferyl-beta-D-N,N'-diacetylchitobioside hydrate as substrate after 60 mins by fluorometric assay
Sequence of Acidic mammalian chitinase (Mus musculus, UniProt Q91XA9) (Q91XA9 whole entry): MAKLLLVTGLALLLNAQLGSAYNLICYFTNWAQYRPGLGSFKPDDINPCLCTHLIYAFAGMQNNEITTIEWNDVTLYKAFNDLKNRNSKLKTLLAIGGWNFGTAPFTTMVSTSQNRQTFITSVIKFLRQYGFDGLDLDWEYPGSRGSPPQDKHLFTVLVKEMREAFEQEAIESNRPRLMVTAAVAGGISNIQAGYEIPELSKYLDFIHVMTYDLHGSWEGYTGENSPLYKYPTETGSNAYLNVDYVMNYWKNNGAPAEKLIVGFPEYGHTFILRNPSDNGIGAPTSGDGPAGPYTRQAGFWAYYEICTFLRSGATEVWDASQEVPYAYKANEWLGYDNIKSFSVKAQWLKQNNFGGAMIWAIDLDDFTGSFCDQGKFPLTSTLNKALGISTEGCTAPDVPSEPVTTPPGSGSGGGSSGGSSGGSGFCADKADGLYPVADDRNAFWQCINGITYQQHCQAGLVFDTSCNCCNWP

Chitotriosidase-1 [4] = target: Chitotriosidase-1 (Homo sapiens, UniProt Q13231); test: Inhibition of full-length C-terminal his-tagged human CHIT1 expressed in CHOK1 cells assessed as reduction in chitinolytic activity using 4-methylumbelliferyl-beta-D-N,N',N\"-triacetylchitotrioside as substrate after 60 mins by fluorometric assay; format: cell-based
Sequence of Chitotriosidase-1 (Homo sapiens, UniProt Q13231) (Q13231 whole entry): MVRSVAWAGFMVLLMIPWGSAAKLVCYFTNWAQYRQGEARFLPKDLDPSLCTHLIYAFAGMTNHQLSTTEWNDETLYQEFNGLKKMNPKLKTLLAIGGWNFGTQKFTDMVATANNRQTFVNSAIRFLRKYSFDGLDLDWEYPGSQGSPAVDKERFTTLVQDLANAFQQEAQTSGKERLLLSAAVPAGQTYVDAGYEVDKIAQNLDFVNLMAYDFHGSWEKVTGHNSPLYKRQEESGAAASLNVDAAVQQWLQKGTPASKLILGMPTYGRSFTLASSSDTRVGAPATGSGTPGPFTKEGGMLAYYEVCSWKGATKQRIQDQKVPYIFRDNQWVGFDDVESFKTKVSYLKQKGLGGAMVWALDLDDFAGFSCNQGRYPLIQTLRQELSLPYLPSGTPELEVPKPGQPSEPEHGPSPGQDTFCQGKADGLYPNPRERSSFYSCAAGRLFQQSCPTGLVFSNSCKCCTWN

[5] = target: dopamine transporter (DAT) (Homo sapiens, UniProt Q01959); test: Displacement of [3H]BTCP from recombinant human dopamine transporter at 10 uM after 120 mins by scintillation counting analysis relative to control; format: ADME; conditions: probe [3H]BTCP
Sequence of dopamine transporter (DAT) (Q01959 whole entry): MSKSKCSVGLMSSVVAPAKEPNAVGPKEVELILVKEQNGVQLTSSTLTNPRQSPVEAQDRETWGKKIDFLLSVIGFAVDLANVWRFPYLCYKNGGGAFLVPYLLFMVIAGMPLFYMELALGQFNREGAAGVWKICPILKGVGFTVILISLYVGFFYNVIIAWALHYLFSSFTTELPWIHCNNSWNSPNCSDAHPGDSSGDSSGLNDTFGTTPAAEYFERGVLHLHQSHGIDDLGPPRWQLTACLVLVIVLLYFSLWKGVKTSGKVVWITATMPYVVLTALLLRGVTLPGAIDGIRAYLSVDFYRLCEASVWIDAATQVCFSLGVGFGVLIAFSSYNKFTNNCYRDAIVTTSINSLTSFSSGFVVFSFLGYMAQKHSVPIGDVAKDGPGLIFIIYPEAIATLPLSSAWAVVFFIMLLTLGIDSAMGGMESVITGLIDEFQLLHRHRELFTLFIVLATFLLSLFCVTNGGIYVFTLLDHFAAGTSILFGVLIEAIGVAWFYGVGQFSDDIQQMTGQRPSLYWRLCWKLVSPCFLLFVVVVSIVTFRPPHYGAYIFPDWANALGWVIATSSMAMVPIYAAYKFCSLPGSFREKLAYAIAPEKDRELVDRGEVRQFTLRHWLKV

[6] = Lipophilicity, logD of the compound at pH 7.4; format: physicochemical; conditions: buffer
[7] = target: Acidic mammalian chitinase (Homo sapiens, UniProt Q9BZP6); test: Inhibition of full-length C-terminal his-tagged human acidic mammalian chitinase expressed in CHOK1 cells assessed as reduction in chitinolytic activity using 4-methylumbelliferyl-beta-D-N,N-diacetylchitobioside hydrate as substrate after 60 mins by fluorometric assay
Sequence of Acidic mammalian chitinase (Homo sapiens, UniProt Q9BZP6) (Q9BZP6 whole entry): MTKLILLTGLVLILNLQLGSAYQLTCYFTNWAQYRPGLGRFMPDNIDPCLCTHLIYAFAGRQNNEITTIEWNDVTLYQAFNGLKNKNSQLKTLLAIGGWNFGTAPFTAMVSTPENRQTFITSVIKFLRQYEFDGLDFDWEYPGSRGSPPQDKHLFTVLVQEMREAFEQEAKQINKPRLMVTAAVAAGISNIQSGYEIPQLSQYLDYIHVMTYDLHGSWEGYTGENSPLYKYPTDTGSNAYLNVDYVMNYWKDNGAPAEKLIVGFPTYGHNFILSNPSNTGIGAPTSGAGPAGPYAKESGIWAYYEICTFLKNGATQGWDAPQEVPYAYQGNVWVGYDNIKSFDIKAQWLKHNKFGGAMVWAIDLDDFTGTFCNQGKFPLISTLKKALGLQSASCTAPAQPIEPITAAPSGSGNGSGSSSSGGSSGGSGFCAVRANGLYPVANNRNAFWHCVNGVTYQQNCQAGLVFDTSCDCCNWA

Sequence of Voltage-gated inwardly rectifying potassium channel KCNH2 (Q12809 whole entry): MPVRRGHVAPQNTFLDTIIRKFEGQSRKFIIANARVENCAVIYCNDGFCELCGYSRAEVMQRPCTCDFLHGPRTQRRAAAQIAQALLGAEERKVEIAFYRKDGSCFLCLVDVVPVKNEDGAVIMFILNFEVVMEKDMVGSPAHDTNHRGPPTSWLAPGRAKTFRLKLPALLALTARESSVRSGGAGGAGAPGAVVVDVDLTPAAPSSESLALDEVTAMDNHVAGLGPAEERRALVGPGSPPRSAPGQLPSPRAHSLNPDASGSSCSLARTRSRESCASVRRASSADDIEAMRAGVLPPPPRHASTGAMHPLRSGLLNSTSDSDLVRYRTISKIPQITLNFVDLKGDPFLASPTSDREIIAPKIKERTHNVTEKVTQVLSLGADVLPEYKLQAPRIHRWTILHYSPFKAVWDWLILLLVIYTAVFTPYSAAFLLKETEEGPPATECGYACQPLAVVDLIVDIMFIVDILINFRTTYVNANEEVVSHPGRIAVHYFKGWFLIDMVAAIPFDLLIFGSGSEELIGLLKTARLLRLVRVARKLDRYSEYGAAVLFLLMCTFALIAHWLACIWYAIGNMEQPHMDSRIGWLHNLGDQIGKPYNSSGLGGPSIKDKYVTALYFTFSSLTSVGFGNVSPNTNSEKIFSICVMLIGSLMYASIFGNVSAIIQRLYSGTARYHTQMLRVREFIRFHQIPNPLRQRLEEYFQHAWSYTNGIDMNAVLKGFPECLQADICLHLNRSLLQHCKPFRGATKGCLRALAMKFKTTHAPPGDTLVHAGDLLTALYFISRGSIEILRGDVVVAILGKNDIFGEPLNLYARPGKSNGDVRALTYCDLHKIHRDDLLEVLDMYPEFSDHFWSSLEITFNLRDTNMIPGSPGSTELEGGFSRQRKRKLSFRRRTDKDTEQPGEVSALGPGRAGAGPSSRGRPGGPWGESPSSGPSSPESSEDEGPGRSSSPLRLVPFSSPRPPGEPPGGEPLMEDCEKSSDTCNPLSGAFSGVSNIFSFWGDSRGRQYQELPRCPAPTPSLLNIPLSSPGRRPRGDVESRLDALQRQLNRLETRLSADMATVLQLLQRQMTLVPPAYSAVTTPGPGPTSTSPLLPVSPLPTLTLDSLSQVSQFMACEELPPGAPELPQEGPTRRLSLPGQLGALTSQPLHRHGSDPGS

CC(=O)NCCN(CCc1ccc(Cl)cc1)C1CCN(c2nc(N)n[nH]2)CC1
IC50 [1]: 3300 nM | IC50 (Chitotriosidase-1 [2]): 8100 nM | IC50 [3]: 35 nM | IC50 (Chitotriosidase-1 [4]): 495 nM

CO[C@@H](C)CN(CCc1ccc(Cl)cc1)C1CCN(c2nc(N)n[nH]2)CC1
inhibition at 2 h, 10 µM [5]: 33% | IC50 [1]: 17600 nM | IC50 (Chitotriosidase-1 [2]): 1150 nM | IC50 [3]: 53 nM | IC50 (Chitotriosidase-1 [4]): 44 nM

COCCN(CCc1ccc(Cl)cc1)C1CCN(c2nc(N)n[nH]2)CC1
IC50 [1]: 2800 nM | IC50 (Chitotriosidase-1 [2]): 1700 nM | IC50 [3]: 55 nM | IC50 (Chitotriosidase-1 [4]): 84 nM

CNC(=O)CN(CCc1ccc(Cl)cc1)C1CCN(c2nc(N)n[nH]2)CC1
IC50 [1]: 2600 nM | IC50 (Chitotriosidase-1 [2]): 48000 nM | IC50 [3]: 1150 nM | IC50 (Chitotriosidase-1 [4]): 1800 nM

CO[C@H]1C[C@H](Cc2ccc(Cl)cc2)N(C2CCN(c3nnc(N)[nH]3)CC2)C1
logD [6]: 1.6 | inhibition at 2 h, 10 µM [5]: 59% | IC50 (Chitotriosidase-1 [2]): 345 nM | IC50 [3]: 65 nM | IC50 (Chitotriosidase-1 [4]): 47 nM

Nc1n[nH]c(N2CCC(N(CCc3ccc(Cl)cc3)CC3CCCO3)CC2)n1 (centres undefined)
inhibition at 2 h, 10 µM [5]: 74% | IC50 [1]: 15000 nM | IC50 (Chitotriosidase-1 [2]): 1080 nM | IC50 [3]: 17 nM | IC50 (Chitotriosidase-1 [4]): 27 nM

Nc1n[nH]c(N2CCC(N(CCc3ccc(Cl)cc3)CC(=O)O)CC2)n1
IC50 [1]: 8000 nM | IC50 (Chitotriosidase-1 [2]): 21000 nM | IC50 [3]: 395 nM | IC50 (Chitotriosidase-1 [4]): 1900 nM

COC(C)(C)CN(CCc1ccc(Cl)cc1)C1CCN(c2nc(N)n[nH]2)CC1
IC50 [1]: 3500 nM | IC50 (Chitotriosidase-1 [2]): 3650 nM | IC50 (Chitotriosidase-1 [4]): 505 nM

Nc1nc(N2CCC(N3C[C@H](O)C[C@@H]3Cc3ccc(Cl)cc3)CC2)n[nH]1
logD [6]: 0.68 | IC50 [1]: 55000 nM | IC50 (Chitotriosidase-1 [2]): 135 nM | IC50 [3]: 68 nM

CNC(=O)NCCN(CCc1ccc(Cl)cc1)C1CCN(c2nc(N)n[nH]2)CC1
IC50 [1]: 1800 nM | IC50 (Chitotriosidase-1 [2]): 9100 nM | IC50 [3]: 130 nM | IC50 (Chitotriosidase-1 [4]): 1430 nM

Nc1n[nH]c(N2CCC(N(CCO)CCc3ccc(Cl)cc3)CC2)n1
IC50 [1]: 6300 nM | IC50 (Chitotriosidase-1 [2]): 4800 nM | IC50 [3]: 135 nM | IC50 (Chitotriosidase-1 [4]): 384 nM

Nc1nnc(N2CCC(N3CCCC[C@@H]3Cc3ccc(Cl)cc3)CC2)[nH]1
logD [6]: 1.41 | IC50 [1]: 8300 nM | IC50 (Chitotriosidase-1 [2]): 87 nM | IC50 [3]: 81 nM | IC50 (Chitotriosidase-1 [4]): 41 nM | IC50 [7]: 23 nM

Nc1n[nH]c(N2CCC(N3CCC(c4ccc(Cl)cc4)C3)CC2)n1 (centres undefined)
IC50 (Chitotriosidase-1 [2]): 37000 nM | IC50 [3]: 2600 nM | IC50 (Chitotriosidase-1 [4]): 19500 nM

Nc1nnc(N2CCC(N3CCC[C@@H]3Cc3ccc(Cl)cc3)CC2)[nH]1
logD [6]: 1.15 | IC50 [1]: 4000 nM | IC50 (Chitotriosidase-1 [2]): 430 nM | IC50 [3]: 120 nM
